Reference: US20230365589A1, “NOVEL AMINE DERIVATIVES” (Sumitomo Pharma Co., Ltd., priority 2020, published 2023)
Read-outs that look alike come from different tables or passages of the source.

What was measured:
Format in all cases: biochemical
DYRK3 = target: T1, DYRK3 (Homo sapiens, UniProt O43781); test: Inhibition test on activity of DYRK family, mobility shift assay (MSA): DYRK3
T1 construct: purchased Carna Biosciences, Inc. 04-133
T1 sequence (O43781 1-568 isoform O43781-2): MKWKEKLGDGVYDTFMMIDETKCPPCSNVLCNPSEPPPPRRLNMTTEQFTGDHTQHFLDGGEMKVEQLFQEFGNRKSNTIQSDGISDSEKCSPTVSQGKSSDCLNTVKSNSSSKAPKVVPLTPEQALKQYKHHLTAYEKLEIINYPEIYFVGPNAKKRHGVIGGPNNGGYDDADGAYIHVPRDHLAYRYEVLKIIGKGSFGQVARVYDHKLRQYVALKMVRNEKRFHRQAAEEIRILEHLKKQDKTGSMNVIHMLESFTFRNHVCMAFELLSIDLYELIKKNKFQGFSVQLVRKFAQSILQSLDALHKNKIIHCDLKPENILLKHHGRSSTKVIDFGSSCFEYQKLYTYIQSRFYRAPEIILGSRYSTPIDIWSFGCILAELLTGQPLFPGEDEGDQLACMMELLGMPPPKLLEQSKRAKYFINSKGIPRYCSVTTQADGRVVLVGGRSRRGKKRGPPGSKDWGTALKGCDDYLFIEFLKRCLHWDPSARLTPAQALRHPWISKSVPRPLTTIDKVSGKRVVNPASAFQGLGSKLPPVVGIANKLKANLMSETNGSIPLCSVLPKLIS
Method: (§1) [Inhibition Test on Activity of DYRK Family (DYRK1A, DYRK1B, DYRK2, and DYRK3)]
(§2) The kinase activity was measured by mobility shift assay (MSA) method using QuickScout Screening Assist™ MSA (commercially available kit manufactured by Carna Biosciences, Inc.). The substrate of the kinase reaction used was an FITC-labeled DYRKtide peptide included in the kit. An assay buffer [20 mM HEPES, 0.01% Triton X-100™, 2 mM dithiothreitol, pH 7.5]was used to create a substrate mixture solution with a substrate (4 μM), MgCl2(20 mM), and ATP (DYRK1A: 100 μM; DYRK1B: 200 μM; DYRK2: 40 μM; and DYRK3: 20 μM). In addition, kinases (DYRK1A: manufactured by Carna Biosciences, Inc., Cat. No. 04-130; DYRK1B: manufactured by Carna Biosciences, Inc., Cat. No. 04-131; DYRK2; manufactured by Carna Biosciences, Inc., Cat. No. 04-132; and DYRK3; manufactured by Carna Biosciences, Inc., Cat. No. 04-133) were diluted with the assay buffer to prepare enzyme solutions (DYRK1A: 0.2 ng/μL; DYRK1B: 0.08 ng/μL; DYRK2: 0.04 ng/μL; and DYRK3: 0.25 ng/μL). The 10 mM solution of the test compound in DMSO was further diluted with DMSO to 10 levels of the concentration (0.00003 mM, 0.0001 mM, 0.0003 mM, 0.001 mM, 0.003 mM, 0.01 mM, 0.03 mM, 0.1 mM, 0.3 mM, and 1 mM), each of which was subjected to 25-fold dilution with the assay buffer to obtain a drug solution (4% DMSO solution). 5 μL of the drug solution or a control solution (4% DMSO-assay buffer), 5 μL of the substrate mixture solution, and 10 μL of the enzyme solution were mixed in the wells of a polypropylene 384-well plate and allowed to react at room temperature for 1 hour, and then the reaction was quenched by adding 60 μL of the termination buffer included in the kit. Subsequently, the quantities of the substrates (S) and the phosphorylated substrate (P) in the reaction solution were measured using LabChip EZ Reader II system (manufactured by Caliper Life Sciences) according to the protocol of the assay kit.
(§3) The heights of the peaks of the “substrate” and the “phosphorylated substrate” were expressed as S and P, respectively, and a blank containing the assay buffer instead of the enzyme solution was also measured.
(§4) The inhibition rate (%) of the test compound was calculated according to the following equation:
(§5) Inhibition rate (%)=(1−(C−A)/(B−A))×100 • wherein, A, B, and C represent P/(P+S) of the blank well, P/(P+S) of the control solution well, and P/(P+S) of the compound-containing well, respectively.
(§6) The IC50 value was calculated via a regression analysis of the inhibition rate and the test compound concentration (logarithmic value).
(§7) The inhibiting activities of representative compounds of the present invention are shown against DYRK1A, DYRK1B, DYRK2, and DYRK3 in Tables.

DYRK1A = target: T2, DYRK1A (Homo sapiens, UniProt Q13627); test: Inhibition test on activity of DYRK family, mobility shift assay (MSA): DYRK1A
T2 construct: purchased Carna Biosciences, Inc. 04-130
Method: as §1, §2, §3, §4, §5, §6

DYRK2 = target: T3, DYRK2 (Homo sapiens, UniProt Q92630); test: Inhibition test on activity of DYRK family, mobility shift assay (MSA): DYRK2
T3 construct: purchased Carna Biosciences, Inc. 04-132
T3 sequence (Q92630 74-601 limits assumed): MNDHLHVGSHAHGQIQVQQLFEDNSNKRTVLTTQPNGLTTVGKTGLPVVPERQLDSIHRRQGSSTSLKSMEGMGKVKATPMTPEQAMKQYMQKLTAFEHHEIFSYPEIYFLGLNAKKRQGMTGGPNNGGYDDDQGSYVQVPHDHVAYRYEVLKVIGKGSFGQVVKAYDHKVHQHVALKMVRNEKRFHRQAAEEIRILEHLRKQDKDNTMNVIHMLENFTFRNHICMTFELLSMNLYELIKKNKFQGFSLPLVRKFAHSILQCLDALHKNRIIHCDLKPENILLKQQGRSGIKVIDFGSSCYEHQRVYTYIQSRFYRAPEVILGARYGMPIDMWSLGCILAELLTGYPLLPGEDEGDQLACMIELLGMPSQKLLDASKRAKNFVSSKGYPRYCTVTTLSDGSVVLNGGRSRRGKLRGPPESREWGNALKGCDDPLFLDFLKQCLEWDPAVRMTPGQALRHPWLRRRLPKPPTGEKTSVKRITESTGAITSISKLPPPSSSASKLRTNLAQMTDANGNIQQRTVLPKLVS
Method: as §1, §2, §3, §4, §5, §6, §7

[1] = read-out: Inhibitory activity DYRK 3
[2] = read-out: Inhibitory activity DYRK 1A
[3] = read-out: Inhibitory activity DYRK 2
[4] = MSA, FITC-labeled DYRKtide peptide, ATP 20 μM, read-out: Inhibitory activity DYRK 3 (IC50 class)
[5] = MSA, FITC-labeled DYRKtide peptide, ATP 100 μM, read-out: Inhibitory activity DYRK 1A (IC50 class)
[6] = MSA, FITC-labeled DYRKtide peptide, ATP 40 μM, read-out: Inhibitory activity DYRK 2 (IC50 class)

Structure (SMILES) | IC50 (DYRK3; [1]) [µM] | IC50 (DYRK1A; [2]) [µM] | IC50 (DYRK2; [3]) [µM] | IC50 (DYRK3; [4]) [µM] | IC50 (DYRK1A; [5]) [µM] | IC50 (DYRK2; [6]) [µM]
C#CCN1C[C@@H]2NC(=O)N(c3nc4c5c(ccc4s3)OCC5)[C@@H]2C1 (racemic) [Example 102, rac-(3aR,6aS)-1-(7,8-dihydrofuro[3,2-e][1,3]benzothiazol-2-yl)-5-(2-propyn-1-yl)hexahydropyrrolo[3,4-d]imidazol-2(1H)-one] | 0.1 to 1 | 0.01 to 0.1 | ≥ 1 |  |  | 
N#CCN1C[C@@H]2NC(=O)N(c3nc4c5c(ccc4s3)OCC5)[C@@H]2C1 (racemic) [Example 103, rac-[(3aR,6aS)-1-(7,8-dihydrofuro[3,2-e][1,3]benzothiazol-2-yl)-2-oxohexahydropyrrolo[3,4-d]imidazol-5(1H)-yl]acetonitrile] | 0.1 to 1 | 0.01 to 0.1 | ≥ 1 |  |  | 
O=C1N[C@H]2CCCN(C3CC3)C[C@H]2N1c1nc2c3c(ccc2s1)OCC3 (racemic) [Example 104, rac-(3aR,8aS)-5-cyclopropyl-3-(7,8-dihydrofuro[3,2-e][1,3]benzothiazol-2-yl)octahydroimidazo[4,5-c]azepin-2(1H)-one] | 0.1 to 1 | < 0.01 | 0.1 to 1 |  |  | 
C#CCN1CCC[C@@H]2NC(=O)N(c3nc4c5c(ccc4s3)OCC5)[C@@H]2C1 (racemic) [Example 105, rac-(3aR,8aS)-3-(7,8-dihydrofuro[3,2-e][1,3]benzothiazol-2-yl)-5-(2-propyn-1-yl)octahydroimidazo[4,5-c]azepin-2(1H)-one] | ≥ 1 | 0.01 to 0.1 | ≥ 1 |  |  | 
N#CCN1CCC[C@@H]2NC(=O)N(c3nc4c5c(ccc4s3)OCC5)[C@@H]2C1 (racemic) [Example 106, rac-[(3aR,8aS)-3-(7,8-dihydrofuro[3,2-e][1,3]benzothiazol-2-yl)-2-oxooctahydroimidazo[4,5-c]azepin-5(1H)-yl]acetonitrile] | 0.1 to 1 | 0.01 to 0.1 | ≥ 1 |  |  | 
O=C1N[C@H]2CCN(CC(F)(F)F)C[C@H]2N1c1nc2c3c(ccc2s1)OCC3 (racemic) [Example 107, rac-(3aR,7aS)-3-(7,8-dihydrofuro[3,2-e][1,3]benzothiazol-2-yl)-5-(2,2,2-trifluoroethyl)octahydro-2H-imidazo[4,5-c]pyridin-2-one] | ≥ 1 | 0.01 to 0.1 | ≥ 1 |  |  | 
O=C1N[C@H]2CCOC[C@H]2N1c1nc2c3c(ccc2s1)OCC3 (racemic) [Example 120, rac-(3aR,7aR)-3-(7,8-dihydrofuro[3,2-e][1,3]benzothiazol-2-yl)hexahydropyrano[3,4-d]imidazol-2(3H)-one] | 0.1 to 1 | 0.01 to 0.1 | 0.1 to 1 |  |  | 
O=C1N[C@H]2COCC[C@H]2N1c1nc2c3c(ccc2s1)OCC3 (racemic) [Example 121, rac-(3aR,7aR)-1-(7,8-dihydrofuro[3,2-e][1,3]benzothiazol-2-yl)hexahydropyrano[3,4-d]imidazol-2(3H)-one] | 0.1 to 1 | 0.01 to 0.1 | 0.1 to 1 |  |  | 
O=C1N[C@H]2CCNC[C@H]2N1c1nc2c3c(ccc2s1)OCC3 (relative stereo) [Example 1, cis-3-(7,8-Dihydrofuro[3,2-e][1,3]benzothiazol-2-yl)octahydro-2H-imidazo[4,5-c]pyridin-2-one] |  |  |  | 0.1 to 1 | 0.01 to 0.1 | ≥ 1
O=C1N[C@@H]2CCN(C3CC3)C[C@@H]2N1c1nc2c3c(ccc2s1)OCCO3 (relative stereo) [Example 31, cis-5-Cyclopropyl-3-(7,8-dihydro[1,4]dioxino[2,3-e][1,3]benzothiazol-2-yl)octahydro-2H-imidazo[4,5-c]pyridin-2-one] |  |  |  | ≥ 1 | < 0.01 | ≥ 1
O=C1N[C@@H]2CCN(C3CC3)C[C@@H]2N1c1nc2c3c(ccc2s1)OCCO3 (single isomer, unassigned) [Example 33] |  |  |  | ≥ 1 | 0.1 to 1 | ≥ 1
O=C1N[C@@H]2CCN(C3CC3)C[C@@H]2N1c1nc2c3c(ccc2s1)OCO3 (single isomer, unassigned) [Example 35] |  |  |  | ≥ 1 | ≥ 1 | ≥ 1

More lines, now with the values ahead:

IC50 (DYRK3; [1]) [µM] | IC50 (DYRK1A; [2]) [µM] | IC50 (DYRK2; [3]) [µM] | IC50 (DYRK3; [4]) [µM] | IC50 (DYRK1A; [5]) [µM] | IC50 (DYRK2; [6]) [µM] | Structure (SMILES)
≥ 1 | 0.01 to 0.1 | ≥ 1 |  |  |  | O=C1N[C@H]2CCN(CC(F)F)C[C@H]2N1c1nc2c3c(ccc2s1)OCC3 (racemic) [Example 108, rac-(3aR,7aS)-5-(2,2-difluoroethyl)-3-(7,8-dihydrofuro[3,2-e][1,3]benzothiazol-2-yl)octahydro-2H-imidazo[4,5-c]pyridin-2-one]
 |  |  | ≥ 1 | 0.01 to 0.1 | ≥ 1 | CC(C)N1CC[C@H]2NC(=O)N(c3nc4c5c(ccc4s3)OCC5)[C@H]2C1 (relative stereo) [Example 15, cis-3-(7,8-dihydrofuro[3,2-e][1,3]benzothiazol-2-yl)-5-(propan-2-yl)octahydro-2H-imidazo[4,5-c]pyridin-2-one]
 |  |  | ≥ 1 | 0.01 to 0.1 | ≥ 1 | CN1CCC[C@@H]2NC(=O)N(c3nc4c5c(ccc4s3)OCC5)[C@@H]2C1 (relative stereo) [Example 17, cis-3-(7,8-dihydrofuro[3,2-e][1,3]benzothiazol-2-yl)-5-methyloctahydroimidazo[4,5-c]azepin-2(1H)-one]
 |  |  | > 1 | 0.1 to 1 | > 1 | CC(=O)N1CC[C@@H]2NC(=O)N(c3nc4c5c(ccc4s3)OCC5)[C@@H]2C1 (relative stereo) [Example 20, cis-5-Acetyl-3-(7,8-dihydrofuro[3,2-e][1,3]benzothiazol-2-yl) octahydro-2H-imidazo[4,5-c]pyridin-2-one]
≥ 1 | ≥ 1 | ≥ 1 |  |  |  | O=C1N[C@@H]2CCN(C3CC3)C[C@@H]2N1c1nc2c3c(ccc2s1)OCC3 (single isomer, unassigned) [Example 109]
≥ 1 | < 0.01 | ≥ 1 |  |  |  | O=C1N[C@H]2CCN(C3CC3)C[C@H]2N1c1nc2c3c(ccc2s1)OCC3 (single isomer, unassigned) [Example 110]
